Test system: Runx2
Experiment: Runx2 activity, 6xOSE2-Luc luciferase reporter in transfected C2C12 cells
Assay type: cell-based, Mouse
Conditions: 24 hrs; for fold induction at 2.5 µM / fold induction at 5 µM / fold induction at 10 µM / fold induction at 20 µM: Mus musculus, read-out: luciferase activity relative to control set as 1
Experimental: Mouse premyoblast cell (C2C12 cell) was transfected using receptor vector 6xOSE2-Luc in order to investigate the activity of the amide compound of the present invention on Runx2.
Specifically, the receptor vector 6xOSE2-Luc was prepared by inserting an artificial promoter linked by six tandem copies of the OSE2 (osteoblast specific element-2) into vector pGL3 (Promega; Madison, Wis., U.S.A.), and then, cloned into the C2C12 cell to be transfected (Kim et al., Journal of Cellular Biochemistry, 91: 1239-1247, 2004). The OSE2 is the binding site of Runx2 in the promoter of osteocalcin which is a bone marker.
C2C12 cells (5,000 cells/well) were plated onto 96-well plates using 10% FBS (fetal bovine serum; Hyclone)-containing DMEM (Dulbecco's Modified Eagle's Medium), the medium was replaced with 5% FBS-containing DMEM after 24 hrs, and treated with each of the amide compounds obtained in Examples 1 to 94 at various concentrations of 2.5 μM, 5.0 μM, 10 μM, and 20 μM. As a control, dimethyl sulfoxide (DMSO) vehicle was applied to the cell in an amount same as that of the amide compound. After 24 hrs, the luciferase activity in the cell lysate was measured by using Dual-Luciferase Reporter Assay System (Promega). The luciferase activity of the amide compound of the present invention was calculated as a value relative to that observed for the control which was set as 1.

SMILES	fold induction at 2.5 µM (2.5 μM)	fold induction at 5 µM (5.0 μM)	fold induction at 10 µM (10 μM)	fold induction at 20 µM (20 μM)	luciferase activity relative to control set as 1 (2.5 μM) [fold]	luciferase activity relative to control set as 1 (5.0 μM) [fold]	luciferase activity relative to control set as 1 (10 μM) [fold]	luciferase activity relative to control set as 1 (20 μM) [fold]
COc1cc(C(=O)NCc2ccc(C(=O)Nc3ccccc3N)cc2)c(C)c(Br)c1OC [Example 73, N-(2-aminophenyl)-4-((3-bromo-4,5-dimethoxy-2-methylbenzamido)methyl)benzamide]	24.2	32.3	30.8	25.9				
Nc1ccccc1NC(=O)c1ccc(CN2Cc3cc(-c4cc(F)cc(F)c4)ccc3C2=O)cc1 [Example 60, N-(2-aminophenyl)-4-((5-(3,5-difluorophenyl)-1-oxoisoindolin-2-yl)methyl)benzamide]	5.4	5.9	7	8.6				
Cc1c(C(=O)NCc2ccc(C(=O)Nc3ccccc3N)cc2)cccc1-c1cccnc1 [Example 71, N-(2-aminophenyl)-4-((2-methyl-3-(3-pyridinyl)benzamido)methyl)benzamide]	18.7	34.8	36.5	32.7				
O=C(CCCCCN1Cc2c(cccc2-c2ccc(C(F)(F)F)cc2)C1=O)NO [Example 44, 6-(4-(4-(trifluoromethyl)phenyl)-1-oxoisoindolin-2-yl)-N-hydroxyhexanamide]	1.2	1.2	1.3	1.4				
Nc1ccccc1NC(=O)c1ccc(CN2Cc3cc(-c4ccc(C(F)(F)F)cc4)ccc3C2=O)cc1 [Example 59, N-(2-aminophenyl)-4-((5-(4-(trifluoromethyl)phenyl)-1-oxoisoindolin-2-yl)methyl)benzamide]	3.3	4.5	4.1	3.8				
COc1cc2c(c(Br)c1OC)CN(Cc1ccc(C(=O)Nc3ccccc3N)cc1)C2=O [Example 1, N-(2-aminophenyl)-4-((4-bromo-5,6-dimethoxy-1-oxoisoindolin-2-yl)methyl)benzamide]	21.4	26.2	19.9	15.8				
Nc1ccccc1NC(=O)c1ccc(CN2Cc3c(cccc3-c3ccc(-c4ccccc4)cc3)C2=O)cc1 [Example 25, N-(2-aminophenyl)-4-[1-oxo-4-(4-phenylphenyl)-2,3-dihydro-1H-isoindol-2-yl]methylbenzamide]	6.8	11.3	17.9	19.7				
COc1cc(C(=O)NCc2ccc(C(=O)Nc3ccccc3N)cc2)c(C)c(-c2cncnc2)c1OC [Example 75, N-(2-aminophenyl)-4-((2-methyl-4,5-dimethoxy-3-(5-pyrimidinyl)-benzamido)methyl)benzamide]	2.5	4.7	12.4	27.8				
Cc1ccc(-c2cccc3c2CN(Cc2ccc(C(=O)Nc4ccccc4N)cc2)C3=O)cc1F [Example 27, N-(2-aminophenyl)-4-((4-(3-fluoro-4-methylphenyl)-1-oxoisoindolin-2-yl)methyl)benzamide]	9.9	17.5	22.5	20.3				
COc1cc2c(c(-c3cccnc3)c1OC)CN(Cc1ccc(C(=O)Nc3ccccc3N)cc1)C2=O [Example 4, N-(2-aminophenyl)-4-((5,6-dimethoxy-1-oxo-4-(pyridin-3-yl)isoindolin-2-yl)methyl)benzamide]	37	42.2	36.6	36.7				
COc1cc(C(=O)NCc2ccc(C(=O)Nc3ccccc3N)cc2)c(C)c(-c2ccc(C(F)(F)F)cc2)c1OC [Example 78, N-(2-aminophenyl)-4-((2-methyl-3-(4-trifluoromethylphenyl)-4,5-dimethoxy-benzamido)methyl)benzamide]	6.4	12.8	19.1	21.1				
CC(=O)Nc1cccc(-c2cccc3c2CN(Cc2ccc(C(=O)Nc4ccccc4N)cc2)C3=O)c1 [Example 23, N-(2-aminophenyl)-4-[4-(3-acetamidophenyl)-1-oxo-2,3-dihydro-1H-isoindol-2-yl]methylbenzamide]	3.9	5.1	18.1	33.2				
Nc1ccccc1NC(=O)c1ccc(CN2Cc3c(cccc3-c3cc(F)cc(F)c3)C2=O)cc1 [Example 17, N-(2-aminophenyl)-4-((4-(3,5-difluorophenyl)-1-oxoisoindolin-2-yl)methyl)benzamide]	11.2	14.7	16.3	15.8				
O=C(CCCCCN1Cc2c(cccc2-c2cccnc2)C1=O)NO [Example 43, N-hydroxy-6-(1-oxo-4-(pyridin-3-yl)isoindolin-2-yl)hexanamide]	1.1	1.3	1.8	3.2				
Cc1cc(C)cc(-c2cccc3c2CN(Cc2ccc(C(=O)Nc4ccccc4N)cc2)C3=O)c1 [Example 12, N-(2-aminophenyl)-4-((4-(3,5-dimethylphenyl)-1-oxoisoindolin-2-yl)methyl)benzamide]	5.5	9	12.2	10.4				
CC(C)(C)c1ccc(-c2cccc3c2CN(Cc2ccc(C(=O)Nc4ccccc4N)cc2)C3=O)cc1 [Example 28, 4-((4-(4-tert-butylphenyl)-1-oxoisoindolin-2-yl)methyl)-N-(2-aminophenyl)benzamide]	4.6	7.7	14.3	23.7				
Nc1ccccc1NC(=O)c1ccc(CN2Cc3c(cccc3-c3ccc(F)cc3)C2=O)cc1 [Example 30, N-(2-aminophenyl)-4-((4-(4-fluorophenyl)-1-oxoisoindolin-2-yl)methyl)benzamide]	13.5	20.5	28.8	30.4				
Cc1c(C(=O)NCc2ccc(C(=O)Nc3ccccc3N)cc2)cccc1-c1cccc(N)c1 [Example 72, N-(2-aminophenyl)-4-((2-methyl-3-(3-aminophenyl)benzmido)methyl)benzamide]					17.6	29.8	29.6	31.4
Nc1ccccc1NC(=O)c1ccc(CN2Cc3c(cccc3-c3ccc4c(c3)OCO4)C2=O)cc1 [Example 19, N-(2-aminophenyl)-4-((4-(benzo[d][1,3]dioxol-6-yl)-1-oxoisoindolin-2-yl)methyl)benzamide]	10.8	9.9	11.7	14				
Nc1ccccc1NC(=O)c1ccc(CN2Cc3cc(-c4ccccc4)ccc3C2=O)cc1 [Example 57, N-(2-aminophenyl)-4-((1-oxo-5-phenylisoindolin-2-yl)methyl)benzamide]	7.3	8.9	10.9	10.7				
Nc1ccc(-c2cccs2)cc1NC(=O)CCCCCN1Cc2c(cccc2-c2cncnc2)C1=O [Example 47, N-(2-amino-5-(thiophen-2-yl)phenyl)-6-(1-oxo-4-(pyrimidin-5-yl)isoindolin-2-yl)hexanamide]	1.1	1.2	1.3	1.6				
Nc1ccccc1NC(=O)CCCCCN1Cc2c(cccc2-c2cccnc2)C1=O [Example 38, N-(2-aminophenyl)-6-(1-oxo-4-(pyridin-3-yl)isoindolin-2-yl)hexanamide]	3	8.2	23	43.3				
O=C(CCCCCN1Cc2c(cccc2-c2cc(F)cc(F)c2)C1=O)NO [Example 42, 6-(4-(3,5-difluorophenyl)-1-oxoisoindolin-2-yl)-N-hydroxyhexanamide]	3.1	10.8	22.3	17.9				
COc1cc2c(c(-c3cccnc3)c1OC)CN(Cc1ccc(C(=O)Nc3cc(-c4cccs4)ccc3N)cc1)C2=O [Example 48, N-(2-amino-5-(thiophen-2-yl)phenyl)-4-((5,6-dimethoxy-1-oxo-4-(pyridin-3-yl)isoindolin-2-yl)methyl)benzamide]	3.7	7.2	11.4	14.3				
